# Data from PMC7502707, “Characterization and validation of a preventative therapy for hypertrophic cardiomyopathy in a murine model of the disease” (Proceedings of the National Academy of Sciences of the …, 2020).
# Columns and labels:
# [1] = system: wt and cTnI-G203S cardiac myocytes; test: Mitochondrial membrane potential (JC-1) after in vitro peptide exposure; assay type: cell-based, mouse; conditions: 10 μM BayK(−), calcium-free HBS
# Procedure: (§1) Fluorescence was measured on a Hamamatsu Orca ER digital camera attached to an inverted Nikon TE2000-U microscope. Fluorescent indicator 5,5′,6,6′-tetrachloro-1,1′,3,3′-tetraethylbenzimidazolylcarbocyanine iodide was used to measure Ψm in cardiac myocytes, as previously described (JC-1, Molecular Probes) ([61]). Autofluorescence was used to measure flavoprotein oxidation in cardiac myocytes based on previously described methods ([13], [29], [62]). Responses to drugs were reported as a percentage increase from the basal average. Detailed methods are provided in SI Appendix.
# Supporting Materials and Methods
# Isolation of ventricular myocytes
# Myocytes were isolated from wt and cTnI-G203S mice. Animals were anesthetized with pentobarbitone sodium (240 mg/kg) via intraperitoneal injection prior to excision of the heart. Cells were isolated as previously described (1-3). Mouse hearts were excised, cannulated onto a Langendorff apparatus via the aorta, and perfused with Krebs-Henseleit Buffer (KHB) containing […]
# O2/CO2 at 37°C) for 4 min at 37°C. Hearts were then perfused with KHB supplemented with 2.4 mg/ml collagenase B for 3 min, followed by a further 8 min perfusion in the presence of 40 μM calcium. Following perfusion, aorta and atria were removed then ventricles teased apart and triturated to dissociate myocytes into suspension. Myocyte suspension was spun at 500 RPM for 3 min, supernatant discarded, and myocytes resuspended in calcium free Hepes-Buffered Solution […]
# Hepes and 2 glutamine (pH = 7.4 at 37°C) in the presence or absence of 3 mM EGTA (for 0 mM calcium experiments). For calcium containing experiments, calcium was titrated back to achieve a final extracellular concentration of 1.8 mM. […]
# Axopatch 200B voltage-clamp amplifier (Molecular Devices) with a Digidata 1440A interface and pClamp10.5 software (Molecular Devices). A Ag/AgCl electrode was used to ground the bath. Once the whole-cell configuration was achieved, the holding potential was set at –80 mV. […]
# For calcium transient studies, microelectrodes contained (in mM): KCl 20, NaCl 10, MgCl2 2, CaCl2 0.03, potassium L-glutamate 120, EGTA 0.1, HEPES 5 and MgATP 5 (pH adjusted to 7.2 at 37°C with NaOH) supplemented with 2 µM Fura-2 AM (Fura-2, Molecular Probes, Eugene, Oregon). […]
# NaCl 140, KCl 5.4, CaCl2 1, MgCl2 0.5, HEPES 5.5 and glucose 11 (pH adjusted to 7.6 with NaOH), […]
# Fluorescence was measured on a Hamamatsu Orca ER digital camera attached to an inverted Nikon TE2000-U microscope. […]
# Additionally, individual 580 nm and 535 nm wavelength signals were assessed in each experiment to determine whether the fluorescent indicator was accurately measuring Ψm. […] Ratiometric JC-1 or flavoprotein fluorescent signals were quantified by manually tracing myocytes and subtracting an equivalent background region […]
# [2] = system: wt and cTnI-G203S cardiac myocytes; test: Mitochondrial flavoprotein oxidation (autofluorescence) after in vitro peptide exposure; assay type: cell-based, mouse; conditions: 10 μM BayK(−)
# Procedure: as §1, with “Appendix. […]” for “Appendix.”
# Autofluorescence […]
# was used to measure flavoprotein oxidation in cardiac myocytes based on previously described methods (ex = 480 nm, em = 535 nm, interval = 1 min, exposure = 1.5 seconds) (4, 6, 7). Carbonyl cyanide-4-(trifluoromethoxy)phenylhydrazone (FCCP, 50 μM, mitochondrial electron transport chain uncoupler) was added at the end of each experiment to increase flavoprotein oxidation confirming signal was mitochondrial in origin. Ratiometric JC-1 or flavoprotein fluorescent signals were quantified by manually tracing myocytes and subtracting an equivalent background region […]
# Responses to drugs were reported as a percentage increase from the basal average. […]
# (10). Cardiac myocytes were treated with relevant drugs in 96 well plates. MTT was added to each well to a final concentration of 0.5 mg/ml and the rate of the increase in absorbance immediately measured using a spectrophotometer at 37°C (PowerWave XS, 570 nm, reference wavelength of 620 nm). The rate of the increase in absorbance in response to treatments was expressed as a percentage of the rate of the increase prior to the addition of treatments. Each n represents number of replicates for each treatment group from cardiac myocytes isolated from a total of 6 wt (AID[S]- TAT), 4 cTnI-G203S (AID[S]-TAT), and 3 (AID-TAT) mice.
# Immunoblot of ICa-L protein
# [3] = cTnI-G203S myocytes, 1 μM peptide in vitro
# [4] = cTnI-G203S myocytes, 10 μM peptide in vitro
# [5] = wt myocytes, 1 μM peptide in vitro
# [6] = wt myocytes, 10 μM peptide in vitro
sequence,measurement,setting,value
QQLEEDLKGYLDWITQAE [AID-TAT],increase in Ψm (JC-1) in response to BayK(−),[1]; [3],attenuated the response
same,increase in Ψm (JC-1) in response to BayK(−),[1]; [4],significantly attenuated the response
same,increase in Ψm (JC-1) in response to BayK(−),[1]; [5],attenuated the response in cTnI-G203S but not wt myocytes
same,increase in Ψm (JC-1) in response to BayK(−),[1]; [6],significantly attenuated the response
same,increase in flavoprotein oxidation in response to BayK(−),[2]; [3],attenuated the response
same,increase in flavoprotein oxidation in response to BayK(−),[2]; [4],significantly attenuated the response
same,increase in flavoprotein oxidation in response to BayK(−),[2]; [5],attenuated the response in cTnI-G203S but not wt myocytes
same,increase in flavoprotein oxidation in response to BayK(−),[2]; [6],significantly attenuated the response
